Data published in publication PMC10778626, “Efficacy of Novel Quaternary Ammonium and Phosphonium Salts Differing in Cation Type and Alkyl Chain Length against Antibiotic-Resistant Staphylococcus aureus” (International Journal of Molecular Sciences, 2023).

System: S. aureus XU212, SA1199B, and RN4220
Assay: MIC/MBC by broth microdilution, ranges over the antibiotic-resistant strains
Type: cell-based, Staphylococcus aureus
Experimental: S. aureus CECT 976, obtained from the Spanish Type Culture Collection, was used as the standard susceptibility testing control strain. This strain has been previously employed in diverse studies to validate the antimicrobial effects of novel molecules. Additional antibiotic-resistant strains, S. aureus XU212, SA1199B, and RN4220, generously provided by S. Gibbons (University College London, London, UK) were tested. […] The SA1199B strain is characterized by its resistance to fluoroquinolones due to the overexpression of the NorA efflux pump and its ciprofloxacin resistance.
The minimum inhibitory concentration (MIC) and minimum bactericidal concentration (MBC) values of all QHSs were determined by the broth microdilution method, according to the approved M7-A7 (aerobes) standards of the Clinical and Laboratory Standards Institute (CLSI) guidelines. […] Absorbance measurements were performed at the beginning (t = 0 h) and end (t = 24 h) of the incubation period using a microtiter plate absorbance reader (BMG LABTECH FLUOstar Omega). […]
Plates were incubated at 37 °C for 24 h, and growth was visually inspected. The MBC was determined as the lowest concentration of compound in which the total inhibition of growth on solid medium was observed (no colony forming units (CFUs) were detected). […]

Row | Compound | MBC values, range over strains [µg/mL]
1 | CCCCCCCCCCCCCC[P+](c1ccccc1)(c1ccccc1)c1ccccc1 [Compound 1e, Triphenyl(tetradecyl)phosphonium bromide] | 2
2 | CCCCCCCCCCCCCC[n+]1cccc2ccccc21.[Br-] [Compound 5e, 1-Tetradecylquinolin-1-ium bromide] | 8
